Measured values reported in PMC8698657, “Absorption and Transport Characteristics and Mechanisms of Carnosic Acid” (Biology, 2021).
Where two headings read alike, the source gives them in different places.

Legend:
Caco-2 cell monolayer = assay: Effect of verapamil, PEG 400 and EDTA on trans-enterocyte transport of CA; assay type: in vitro ADME, human
Procedure: (§1) CA was dissolved in HBSS solution at 50, 75, and 100 μM. The HBSS solution containing CA combined with 0.5% Tween 80, 5 mmol/L EDTA or 5% PEG 400 was prepared. The cumulative migration (Qr), apparent permeability coefficient (Papp), and the Papp value of bi-direction transport of CA were calculated according to formulas.
(§2) The 0.5 mL HBSS solution containing CA (50, 75, and 100 μM) combined with 100 μmoL/L verapamil, 5% PEG 400, or 5 mmol/L EDTA was added to the AP side of the Transwell plate, and 1.5 mL HBSS solution was added to the BL side. The effect of verapamil, Tween 80, PEG 400, and EDTA on the trans-enterocyte of CA was investigated according to the method described above. The TEER value of each Transwell chamber was measured.
(§3) The cryopreserved Transwell samples were transferred to a 15 mL centrifuge tube, and any remaining liquid was fully washed using 1 mL of 50% methanol solution which was also transferred to the 15 mL centrifuge tube. The mixture was vortexed for 1 min, and 6 mL of ethyl acetate solution was added to the tube and vortexed for another 2 min. The mixture was centrifuged at 6000 rpm/min at 4 °C for 10 min. The supernatant was dried under vacuum, dissolved in 5% phosphoric acid methanol solution, and filtered through a 0.22 μm microporous membrane. The concentration of CA was determined by HPLC as described above.

[1] = as above; assay type: in vitro ADME, human; settings: human, read-out: Papp AP to BL; for Papp A→B at 50 μM / Papp A→B at 75 μM / Papp A→B at 100 μM: Average of 0.5-3.0 h
Procedure: as §1, §2, §3

[2] = MTT assay, non-toxic dose range of CA; assay type: cell-based; settings: human, Caco-2 cells, CA 100 μM, vs untreated cells, read-out: cell viability
Procedure: Caco-2 were cultured in EMEM complete medium containing 10% FBS, 1% non-essential amino acids, and 1% penicillin-streptomycin double antibody, and the culture conditions were 37 °C, 5% CO2, in a constant temperature incubator [16]. We first established non-toxic dose ranges of CA in Caco-2 cells using MTT assay. Dimethylsulfoxide (DMSO) was used as the vehicle to deliver CA to the cells. The final concentration of DMSO in all experiments was 0.1% (v/v) in cell culture media. Caco-2 cells were seeded in a 96-well plate at a cell density of 5 × 10^4 cells/mL per well, and cultured under 5% CO2 and 37 °C for 24 h. A quantity of 200 μL of medium was added to each well to obtain a series of CA solutions (concentrations of 25, 50, 75, and 100 μmoL). After 48 h of treatment, Caco-2 cells were subjected to the MTT assay as described previously. For the transport study, Caco-2 cells were seeded on the apical compartment (AP) of 12-well Transwell plates at a density of 2 × 10^5 cells/mL. The complete culture medium was added into basolateral (BL) and AP compartments. The basolateral medium was replaced every other day.

[3] = cited from earlier work
[4] = Caco-2, CA 50 μM, + 5 mmoL/L EDTA
[5] = Caco-2, CA 75 μM, + 5 mmoL/L EDTA
[6] = Caco-2, CA 100 μM, + 5% PEG 400
[7] = Caco-2, CA 100 μM, + 5 mmoL/L EDTA
[8] = Caco-2, with verapamil 100 μmol/L, CA 50 μM, + 100 μmoL/L verapamil
[9] = Caco-2, with verapamil 100 μmol/L, CA 75 μM, + 100 μmoL/L verapamil
[10] = Caco-2, with verapamil 100 μmol/L, CA 100 μM, + 100 μmoL/L verapamil
[11] = Caco-2, with verapamil 100 μmoL/L, CA 75 μM, + 100 μmoL/L verapamil

For `CC(C)c1cc2c(c(O)c1O)[C@@]1(C(=O)O)CCCC(C)(C)[C@@H]1CC2` [CA, Carnosic acid], the “increase of Papp (AP to BL) in the presence of EDTA vs control” value (Caco-2 cell monolayer; 5 mmol/L EDTA) was ~ 1.5 fold, the “active efflux / P-gp substrate status” value (Caco-2 cell monolayer; from effect of verapamil and PEG 400 on Papp (AP to BL)) was “could be a substrate of P-gp” and the Papp A→B at 0.5 h, 50 μM ([1]; Caco-2, CA 50 μM, + 5% PEG 400) was 3.76 ± 0.17 ×10⁻⁶ cm/s. The Papp A→B at 0.5 h, 50 μM [1, 4] was 0.5 ± 0.01 ×10⁻⁶ cm/s, the Papp A→B at 1 h, 50 μM ([1]; Caco-2, CA 50 μM, + 5% PEG 400) was 3.96 ± 0.1 ×10⁻⁶ cm/s and the Papp A→B at 1 h, 50 μM [1, 4] was 0.24 ± 0.08 ×10⁻⁶ cm/s. It also gave a Papp A→B at 1.5 h, 50 μM ([1]; Caco-2, CA 50 μM, + 5% PEG 400) of 2.35 ± 0.01 ×10⁻⁶ cm/s, a Papp A→B at 1.5 h, 50 μM [1, 4] of 0.62 ± 0.02 ×10⁻⁶ cm/s and a Papp A→B at 2 h, 50 μM ([1]; Caco-2, CA 50 μM, + 5% PEG 400) of 1.86 ± 0.35 ×10⁻⁶ cm/s. The Papp A→B at 2 h, 50 μM [1, 4] was 0.92 ×10⁻⁶ cm/s, the Papp A→B at 2.5 h, 50 μM ([1]; Caco-2, CA 50 μM, + 5% PEG 400) was 1.89 ± 0.04 ×10⁻⁶ cm/s and the Papp A→B at 2.5 h, 50 μM [1, 4] was 0.95 ± 0.02 ×10⁻⁶ cm/s. The Papp A→B at 3 h, 50 μM ([1]; Caco-2, CA 50 μM, + 5% PEG 400) was 2.34 ± 0.01 ×10⁻⁶ cm/s, the Papp A→B at 3 h, 50 μM [1, 4] was 1.49 ± 0.02 ×10⁻⁶ cm/s and the Papp A→B at 50 μM ([1]; Caco-2, CA 50 μM, + 5% PEG 400) was 2.69 ± 0.04 ×10⁻⁶ cm/s. For the same compound, the Papp A→B at 50 μM [1, 4] was 0.79 ± 0.03 ×10⁻⁶ cm/s, the Papp A→B at 0.5 h, 75 μM ([1]; Caco-2, CA 75 μM, + 5% PEG 400) was 3.9 ± 0.1 ×10⁻⁶ cm/s and the Papp A→B at 0.5 h, 75 μM [1, 5] was 0.92 ± 0.08 ×10⁻⁶ cm/s. It also gave a Papp A→B at 1 h, 75 μM ([1]; Caco-2, CA 75 μM, + 5% PEG 400) of 2.99 ± 0.09 ×10⁻⁶ cm/s, a Papp A→B at 1 h, 75 μM [1, 5] of 1.9 ± 0.08 ×10⁻⁶ cm/s and a Papp A→B at 1.5 h, 75 μM ([1]; Caco-2, CA 75 μM, + 5% PEG 400) of 2.72 ± 0.46 ×10⁻⁶ cm/s. The Papp A→B at 1.5 h, 75 μM [1, 5] was 1.94 ± 0.07 ×10⁻⁶ cm/s, the Papp A→B at 2 h, 75 μM ([1]; Caco-2, CA 75 μM, + 5% PEG 400) was 2.35 ± 0.1 ×10⁻⁶ cm/s and the Papp A→B at 2 h, 75 μM [1, 5] was 2.08 ± 0.03 ×10⁻⁶ cm/s. It also gave a Papp A→B at 2.5 h, 75 μM ([1]; Caco-2, CA 75 μM, + 5% PEG 400) of 1.52 ± 0.06 ×10⁻⁶ cm/s, a Papp A→B at 2.5 h, 75 μM [1, 5] of 1.28 ± 0.1 ×10⁻⁶ cm/s and a Papp A→B at 3 h, 75 μM ([1]; Caco-2, CA 75 μM, + 5% PEG 400) of 1.19 ± 0.06 ×10⁻⁶ cm/s. It also gave a Papp A→B at 3 h, 75 μM [1, 5] of 0.57 ± 0.01 ×10⁻⁶ cm/s, a Papp A→B at 75 μM ([1]; Caco-2, CA 75 μM, + 5% PEG 400) of 1.45 ± 0.08 ×10⁻⁶ cm/s and a Papp A→B at 75 μM [1, 5] of 1.45 ± 0.05 ×10⁻⁶ cm/s. The Papp A→B at 0.5 h, 100 μM [1, 6] was 3.21 ± 0.47 ×10⁻⁶ cm/s, the Papp A→B at 0.5 h, 100 μM [1, 7] was 0.38 ×10⁻⁶ cm/s and the Papp A→B at 1 h, 100 μM [1, 6] was 3.59 ± 0.1 ×10⁻⁶ cm/s. For the same compound, the Papp A→B at 1 h, 100 μM [1, 7] was 2.25 ± 0.09 ×10⁻⁶ cm/s, the Papp A→B at 1.5 h, 100 μM [1, 6] was 2.89 ± 0.05 ×10⁻⁶ cm/s and the Papp A→B at 1.5 h, 100 μM [1, 7] was 1.96 ± 0.07 ×10⁻⁶ cm/s. The Papp A→B at 2 h, 100 μM [1, 6] was 2.25 ± 0.02 ×10⁻⁶ cm/s, the Papp A→B at 2 h, 100 μM [1, 7] was 3.01 ± 0.03 ×10⁻⁶ cm/s and the Papp A→B at 2.5 h, 100 μM [1, 6] was 2.44 ± 0.01 ×10⁻⁶ cm/s. It also gave a Papp A→B at 2.5 h, 100 μM [1, 7] of 1.82 ± 0.08 ×10⁻⁶ cm/s, a Papp A→B at 3 h, 100 μM [1, 6] of 2.14 ± 0.02 ×10⁻⁶ cm/s and a Papp A→B at 3 h, 100 μM [1, 7] of 1.56 ± 0.07 ×10⁻⁶ cm/s. The Papp A→B at 100 μM [1, 6] was 2.76 ± 0.07 ×10⁻⁶ cm/s, the Papp A→B at 100 μM [1, 7] was 1.83 ± 0.05 ×10⁻⁶ cm/s and the Papp A→B at 0.5 h, 50 μM [1, 8] was 1.98 ± 0.06 ×10⁻⁶ cm/s. The Papp A→B at 1 h, 50 μM [1, 8] was 1.89 ± 0.09 ×10⁻⁶ cm/s, the Papp A→B at 1.5 h, 50 μM [1, 8] was 1.84 ± 0.06 ×10⁻⁶ cm/s and the Papp A→B at 2 h, 50 μM [1, 8] was 2.08 ± 0.1 ×10⁻⁶ cm/s. For the same compound, the Papp A→B at 2.5 h, 50 μM [1, 8] was 0.95 ± 0.03 ×10⁻⁶ cm/s, the Papp A→B at 3 h, 50 μM [1, 8] was 1.37 ± 0.09 ×10⁻⁶ cm/s and the Papp A→B at 3 h, 75 μM [1, 9] was 0.69 ± 0.01 ×10⁻⁶ cm/s. For the same compound, the Papp A→B at 75 μM [1, 9] was 1.53 ± 0.04 ×10⁻⁶ cm/s, the Papp A→B at 0.5 h, 100 μM [1, 10] was 1.26 ± 0.02 ×10⁻⁶ cm/s and the Papp A→B at 1 h, 100 μM [1, 10] was 1.7 ± 0.01 ×10⁻⁶ cm/s. The Papp A→B at 1.5 h, 100 μM [1, 10] was 2.99 ± 0.03 ×10⁻⁶ cm/s, the Papp A→B at 2 h, 100 μM [1, 10] was 1.24 ± 0.02 ×10⁻⁶ cm/s and the Papp A→B at 2.5 h, 100 μM [1, 10] was 0.95 ± 0.05 ×10⁻⁶ cm/s. The Papp A→B at 3 h, 100 μM [1, 10] was 1.09 ± 0.02 ×10⁻⁶ cm/s, the Papp A→B at 100 μM [1, 10] was 1.53 ± 0.07 ×10⁻⁶ cm/s and the Papp A→B at 50 μM ([1]; Caco-2, with verapamil 100 μmoL/L, CA 50 μM, + 100 μmoL/L verapamil) was 1.5 ± 0.02 ×10⁻⁶ cm/s. It also gave a Papp A→B at 0.5 h, 75 μM [1, 11] of 1.12 ± 0.01 ×10⁻⁶ cm/s, a Papp A→B at 1 h, 75 μM [1, 11] of 1.32 ± 0.01 ×10⁻⁶ cm/s and a Papp A→B at 1.5 h, 75 μM [1, 11] of 0.85 ± 0.03 ×10⁻⁶ cm/s. For the same compound, the Papp A→B at 2 h, 75 μM [1, 11] was 1.94 ± 0.06 ×10⁻⁶ cm/s, the Papp A→B at 2.5 h, 75 μM [1, 11] was 0.87 ± 0.1 ×10⁻⁶ cm/s and the viability at 48 h, 100 μM [2] was greater than 90%. The “toxicity of orally administered CA” value ([3]; 64.3 and 90 mg/kg oral) was “nontoxic”, the circulating concentration ([3]; rats, 4 h after oral gavage) was 0.39 µg/mL and the main elimination route ([3]; rats, oral 64.3 ± 5.8 mg/kg) was “fecal excretion”. The overall bioavailability ([3]; rats, oral) was 40–65%.
